Measurements from ChEMBL document CHEMBL5321228, “Discovery of novel BTK PROTACs with improved metabolic stability via linker rigidification strategy” (Eur J Med Chem, 2023).
Activity calls are given as the source filed them. No cut-off for these calls is given here.

Tests used:
[1] = molecular target: T1, Protein cereblon/Tyrosine-protein kinase BTK (Homo sapiens, UniProt Q06187+Q96SW2); test: PROTAC activity at CRBN/BTK in human JeKo-1 cells assessed as induction of BTK degradation at 1000 nM incubated for 24 hrs by Western blotting analysis relative to control; assay type: cell-based
Target sequence in this assay (Q06187 2-659 limits assumed): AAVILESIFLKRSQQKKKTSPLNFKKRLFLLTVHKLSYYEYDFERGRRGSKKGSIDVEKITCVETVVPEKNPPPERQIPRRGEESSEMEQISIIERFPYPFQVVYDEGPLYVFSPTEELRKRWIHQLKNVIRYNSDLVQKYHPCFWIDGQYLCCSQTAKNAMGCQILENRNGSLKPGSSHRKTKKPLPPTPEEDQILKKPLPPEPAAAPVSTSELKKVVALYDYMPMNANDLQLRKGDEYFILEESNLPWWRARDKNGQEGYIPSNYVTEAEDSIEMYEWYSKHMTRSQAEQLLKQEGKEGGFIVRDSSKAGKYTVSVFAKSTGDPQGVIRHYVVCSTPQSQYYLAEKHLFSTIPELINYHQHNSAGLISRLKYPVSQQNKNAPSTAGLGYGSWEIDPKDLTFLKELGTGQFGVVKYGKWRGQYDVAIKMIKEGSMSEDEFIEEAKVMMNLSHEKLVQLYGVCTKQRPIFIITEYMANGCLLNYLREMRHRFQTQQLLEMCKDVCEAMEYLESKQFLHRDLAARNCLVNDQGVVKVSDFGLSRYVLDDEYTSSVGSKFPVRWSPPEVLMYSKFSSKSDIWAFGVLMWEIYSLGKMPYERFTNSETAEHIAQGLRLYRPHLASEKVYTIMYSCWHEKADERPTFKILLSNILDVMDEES
Target sequence in this assay (Q96SW2 whole entry partner): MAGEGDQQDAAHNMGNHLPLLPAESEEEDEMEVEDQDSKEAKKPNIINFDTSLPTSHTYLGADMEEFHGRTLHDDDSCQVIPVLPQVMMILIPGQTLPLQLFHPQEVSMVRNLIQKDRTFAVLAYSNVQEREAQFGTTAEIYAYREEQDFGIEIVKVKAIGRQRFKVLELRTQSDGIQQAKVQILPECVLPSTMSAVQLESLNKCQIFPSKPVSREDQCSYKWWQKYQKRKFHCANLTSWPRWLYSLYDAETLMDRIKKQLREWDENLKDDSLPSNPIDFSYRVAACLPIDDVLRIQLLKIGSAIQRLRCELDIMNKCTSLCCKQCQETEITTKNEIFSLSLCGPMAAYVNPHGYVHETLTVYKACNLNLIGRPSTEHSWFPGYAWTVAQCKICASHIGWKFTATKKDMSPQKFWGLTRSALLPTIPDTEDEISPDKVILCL

[2] = molecular target: T1, Protein cereblon/Tyrosine-protein kinase BTK; test: PROTAC activity at CRBN/BTK in human JeKo-1 cells assessed as induction of BTK degradation at 100 nM incubated for 24 hrs by Western blotting analysis relative to control; assay type: cell-based
Target sequence in this assay (Q06187 2-659 limits assumed): as the sequence (Q06187 2-659 limits assumed) above
Target sequence in this assay (Q96SW2 whole entry partner): as the sequence (Q96SW2 whole entry partner) above

[3] = molecular target: T1, Protein cereblon/Tyrosine-protein kinase BTK; test: PROTAC activity at CRBN/BTK in human JeKo-1 cells assessed as induction of BTK degradation incubated for 24 hrs by Western blotting analysis; assay type: cell-based
Target sequence in this assay (Q06187 whole entry): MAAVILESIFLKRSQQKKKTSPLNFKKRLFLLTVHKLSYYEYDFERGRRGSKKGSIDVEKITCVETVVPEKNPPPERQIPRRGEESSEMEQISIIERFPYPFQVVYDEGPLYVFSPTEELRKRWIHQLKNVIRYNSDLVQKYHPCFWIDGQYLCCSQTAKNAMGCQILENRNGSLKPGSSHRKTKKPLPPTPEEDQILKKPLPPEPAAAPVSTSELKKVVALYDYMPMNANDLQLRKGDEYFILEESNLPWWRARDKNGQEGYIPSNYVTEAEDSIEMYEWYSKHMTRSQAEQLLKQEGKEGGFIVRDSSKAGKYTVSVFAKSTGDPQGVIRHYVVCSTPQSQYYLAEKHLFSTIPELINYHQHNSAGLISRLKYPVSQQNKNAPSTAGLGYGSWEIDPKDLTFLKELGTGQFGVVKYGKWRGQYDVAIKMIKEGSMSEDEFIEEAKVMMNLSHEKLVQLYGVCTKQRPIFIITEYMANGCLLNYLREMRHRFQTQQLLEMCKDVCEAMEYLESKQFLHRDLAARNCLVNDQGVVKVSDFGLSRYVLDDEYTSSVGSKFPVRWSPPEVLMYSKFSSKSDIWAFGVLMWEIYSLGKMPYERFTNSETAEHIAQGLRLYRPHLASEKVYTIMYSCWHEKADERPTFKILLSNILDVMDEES
Target sequence in this assay (Q96SW2 whole entry): as the sequence (Q96SW2 whole entry partner) above

[4] = molecular target: T1, Protein cereblon/Tyrosine-protein kinase BTK; test: PROTAC activity at CRBN/BTK in human JeKo-1 cells assessed as induction of BTK degradation by measuring maximal efficacy at 1.6 to 1000 nM incubated for 24 hrs by Western blotting analysis relative to control; assay type: cell-based; details: dose 1.6-1000 nM
Target sequence in this assay (Q06187 2-659 limits assumed): as the sequence (Q06187 2-659 limits assumed) above
Target sequence in this assay (Q96SW2 whole entry partner): as the sequence (Q96SW2 whole entry partner) above

[5] = Drug concentration in BALB/c mouse plasma at 2 mg/kg, iv measured after 4 hrs by LC-MS/MS analysis; assay type: ADME, organism-based
[6] = molecular target: T1, Protein cereblon/Tyrosine-protein kinase BTK; test: PROTAC activity at CRBN/BTK in human JeKo-1 cells assessed as induction of BTK degradation pre-treated with N-((1S,4S)-4-((5-(2-chloro-4-phenoxybenzoyl)-7H-pyrrolo[2,3-d]pyrimidin-4-yl)amino)cyclohexyl)-2-(1-(2-(1-(6-fluoro-2-(1-methyl-2,6-dioxopiperidin-3-yl)-1-oxoisoindolin-5-yl)piperidin-4-yl)ethyl)piperidin-4-yl)acetamide for 2 hrs followed by compound treatment for 12 hrs by Western blotting analysis; assay type: cell-based
Target sequence in this assay (Q06187 2-659 limits assumed): as the sequence (Q06187 2-659 limits assumed) above
Target sequence in this assay (Q96SW2 whole entry partner): as the sequence (Q96SW2 whole entry partner) above

BaF3 = test: Antiproliferative activity against mouse BaF3 cells expressing BTK C481S mutant assessed as inhibition of cell growth measured after 3 days by CCK-8 assay; assay type: functional, cell-based; details: BaF3, 72 h
[7] = molecular target: T1, Protein cereblon/Tyrosine-protein kinase BTK; test: PROTAC activity at CRBN/BTK in human JeKo-1 cells assessed as effect on […] levels at 1.6 to 1000 nM incubated for 24 hrs by Western blotting analysis; assay type: cell-based; details: dose 1.6-1000 nM
Target sequence in this assay (Q06187 2-659 limits assumed): as the sequence (Q06187 2-659 limits assumed) above
Target sequence in this assay (Q96SW2 whole entry partner): as the sequence (Q96SW2 whole entry partner) above

JeKo-1 = test: Antiproliferative activity against human JeKo-1 cells assessed as inhibition of cell growth measured after 3 days by CCK-8 assay; assay type: functional, cell-based; details: JeKo-1, 72 h
[8] = molecular target: T1, Protein cereblon/Tyrosine-protein kinase BTK; test: PROTAC activity at CRBN/BTK in human JeKo-1 cells assessed as induction of BTK degradation pre-treated with MG-132 for 2 hrs followed by compound treatment for 12 hrs by Western blotting analysis; assay type: cell-based
Target sequence in this assay (Q06187 2-659 limits assumed): as the sequence (Q06187 2-659 limits assumed) above
Target sequence in this assay (Q96SW2 whole entry partner): as the sequence (Q96SW2 whole entry partner) above

TMD8 = test: Antiproliferative activity against human TMD8 cells assessed as inhibition of cell growth measured after 3 days by CCK-8 assay; assay type: functional, cell-based; details: TMD8, 72 h
[9] = Metabolic stability in mouse liver microsomes assessed as half life at […] measured upto 60 mins in presence of NADPH by HPLC-MS/MS analysis; assay type: ADME, Microsome
[10] = molecular target: T1, Protein cereblon/Tyrosine-protein kinase BTK; test: PROTAC activity at CRBN/BTK in human JeKo-1 cells assessed as effect on GSPT1 levels at 1.6 to 1000 nM incubated for 24 hrs by Western blotting analysis; assay type: cell-based; details: dose 1.6-1000 nM
OCI-Ly10 = test: Antiproliferative activity against human OCILY10 cells assessed as inhibition of cell growth measured after 3 days by CCK-8 assay; assay type: functional, cell-based; details: OCI-Ly10, 72 h
[11] = molecular target: T1, Protein cereblon/Tyrosine-protein kinase BTK; test: PROTAC activity at CRBN/BTK in human JeKo-1 cells assessed as induction of BTK degradation by measuring maximal efficacy at 1.6 to 5000 nM incubated for 24 hrs by Western blotting analysis relative to control; assay type: cell-based; details: dose 1.6-5000 nM

SMILES | Activity [1] [%] | Activity [2] [%] | DC50 [3] [nM] | also measured
O=C1CCC(N2C(=O)c3ccc(N4CCC(CN5CCC(CC(=O)N[C@H]6CC[C@@H](Nc7ncnc8[nH]cc(C(=O)c9ccc(Oc%10ccccc%10)cc9Cl)c78)CC6)CC5)CC4)cc3C2=O)C(=O)N1 (some centres undefined) | 73.5 | 79.5 | 24 | 
O=C1CCC(N2C(=O)c3ccc(N4CCC(CN5CC(N[C@H]6CC[C@@H](Nc7ncnc8[nH]cc(C(=O)c9ccc(Oc%10ccccc%10)cc9Cl)c78)CC6)C5)CC4)cc3C2=O)C(=O)N1 (some centres undefined) | 24 | 32 |  | 
O=C1CCC(N2Cc3cc(N4CCC(CCN5CCC(CC(=O)N[C@H]6CC[C@@H](Nc7ncnc8[nH]cc(C(=O)c9ccc(Oc%10ccccc%10)cc9Cl)c78)CC6)CC5)CC4)c(F)cc3C2=O)C(=O)N1 (some centres undefined) | 89 | 91 | 7 | Emax [4]: 96.5%; concentration at 4 h [5]: > 10 nM; Activity [6]: inactive; IC50 (BaF3): 86 nM; Activity [7]: inactive; IC50 (JeKo-1): 38.1 nM; Activity [8]: inactive; IC50 (TMD8): 4.5 nM; half-life [9]: > 145 min; Activity [10]: inactive; IC50 (OCI-Ly10): 2.3 nM
O=C1CCC(N2C(=O)c3ccc(N4CCC(N[C@H]5CC[C@@H](Nc6ncnc7[nH]cc(C(=O)c8ccc(Oc9ccccc9)cc8Cl)c67)CC5)CC4)cc3C2=O)C(=O)N1 (some centres undefined) | 5 | 3 |  | 
O=C1CCC(N2C(=O)c3ccc(N4CCC(N5CCC(N[C@H]6CC[C@@H](Nc7ncnc8[nH]cc(C(=O)c9ccc(Oc%10ccccc%10)cc9Cl)c78)CC6)CC5)CC4)cc3C2=O)C(=O)N1 (some centres undefined) | 18.5 | 15 |  | 
O=C1CCC(N2C(=O)c3cccc(NCCOCCOCCOCCOCCOCCNC(=O)N[C@H]4CC[C@@H](Nc5ncnc6[nH]cc(C(=O)c7ccc(Oc8ccccc8)cc7Cl)c56)CC4)c3C2=O)C(=O)N1 (some centres undefined) | 88.6 | 86.5 | 20 | Emax [4]: 93.8%; IC50 (BaF3): 1760 nM; half-life [9]: 1.3 min
O=C1CCC(N2C(=O)c3ccc(N4CC(N5CCC(CN[C@H]6CC[C@@H](Nc7ncnc8[nH]cc(C(=O)c9ccc(Oc%10ccccc%10)cc9Cl)c78)CC6)CC5)C4)cc3C2=O)C(=O)N1 (some centres undefined) | 21 | 30 |  | 
O=C1CCC(N2C(=O)c3ccc(N4CCC(CN5CCCC(N[C@H]6CC[C@@H](Nc7ncnc8[nH]cc(C(=O)c9ccc(Oc%10ccccc%10)cc9Cl)c78)CC6)C5)CC4)cc3C2=O)C(=O)N1 (some centres undefined) | 74 | 31.5 |  | 
O=C1CCC(N2C(=O)c3ccc(N4CCC(CCN5CCC(CC(=O)N[C@H]6CC[C@@H](Nc7ncnc8[nH]cc(C(=O)c9ccc(Oc%10ccccc%10)cc9Cl)c78)CC6)CC5)CC4)cc3C2=O)C(=O)N1 (some centres undefined) | 82.5 | 85 | 8.8 | IC50 (JeKo-1): 59.5 nM; IC50 (TMD8): 82.1 nM; half-life [9]: 86 min; Emax [11]: 94.1%; IC50 (OCI-Ly10): 15.4 nM
O=C1CCC(N2C(=O)c3ccc(N4CCC(F)(CN5CCC(CC(=O)N[C@H]6CC[C@@H](Nc7ncnc8[nH]cc(C(=O)c9ccc(Oc%10ccccc%10)cc9Cl)c78)CC6)CC5)CC4)cc3C2=O)C(=O)N1 (some centres undefined) | 26 | 28.5 |  | 
O=C1CCC(N2Cc3cc(N4CCC(CCN5CCC(CC(=O)N[C@H]6CC[C@@H](Nc7ncnc8[nH]cc(C(=O)c9ccc(Oc%10ccccc%10)cc9Cl)c78)CC6)CC5)CC4)ccc3C2=O)C(=O)N1 (some centres undefined) | 86 | 80.4 | 10.1 | Emax [4]: 90.1%; IC50 (TMD8): 15.5 nM; half-life [9]: 52 min; IC50 (OCI-Ly10): 15.7 nM
O=C1CCC(N2C(=O)c3cc(F)c(N4CCC(CCN5CCC(CC(=O)N[C@H]6CC[C@@H](Nc7ncnc8[nH]cc(C(=O)c9ccc(Oc%10ccccc%10)cc9Cl)c78)CC6)CC5)CC4)cc3C2=O)C(=O)N1 (some centres undefined) | 88.5 | 87 | 9.3 | IC50 (JeKo-1): 116 nM; IC50 (TMD8): 47 nM; half-life [9]: 55.4 min; Emax [11]: 93.6%; IC50 (OCI-Ly10): 28.2 nM
O=C1CCC(N2C(=O)c3ccc(N4CCC(CN5CC(CN[C@H]6CC[C@@H](Nc7ncnc8[nH]cc(C(=O)c9ccc(Oc%10ccccc%10)cc9Cl)c78)CC6)C5)CC4)cc3C2=O)C(=O)N1 (some centres undefined) | 38.5 | 29.5 |  | 
O=C(c1ccc(Oc2ccccc2)cc1Cl)c1c[nH]c2ncnc(N[C@@H]3CC[C@@H](CO)OC3)c12 [NEMTABRUTINIB] |  |  |  | IC50 (BaF3): 548 nM; IC50 (JeKo-1): 66.1 nM
C=CC(=O)N1CCC[C@@H](n2nc(-c3ccc(Oc4ccccc4)cc3)c3c(N)ncnc32)C1 [IBRUTINIB] |  |  |  | IC50 (BaF3): 1550 nM; IC50 (JeKo-1): 79.8 nM; IC50 (TMD8): 4.7 nM; IC50 (OCI-Ly10): 4.5 nM
O=C1CCC(N2C(=O)c3ccc(N4CCC(CN5CCC(CCN[C@H]6CC[C@@H](Nc7ncnc8[nH]cc(C(=O)c9ccc(Oc%10ccccc%10)cc9Cl)c78)CC6)CC5)CC4)cc3C2=O)C(=O)N1 (some centres undefined) | 77 | 57 |  | 
O=C1CCC(N2C(=O)c3ccc(N4CCC(CN5CCC(CN[C@H]6CC[C@@H](Nc7ncnc8[nH]cc(C(=O)c9ccc(Oc%10ccccc%10)cc9Cl)c78)CC6)CC5)CC4)cc3C2=O)C(=O)N1 (some centres undefined) | 63.5 | 48 |  | 
O=C1CCC(N2C(=O)c3ccc(N4CCC(CN5CCC(N[C@H]6CC[C@@H](Nc7ncnc8[nH]cc(C(=O)c9ccc(Oc%10ccccc%10)cc9Cl)c78)CC6)CC5)CC4)cc3C2=O)C(=O)N1 (some centres undefined) | 62 | 51.5 |  | 
O=C1CCC(N2C(=O)c3ccc(N4CCC(CC(=O)N5CCC(CN[C@H]6CC[C@@H](Nc7ncnc8[nH]cc(C(=O)c9ccc(Oc%10ccccc%10)cc9Cl)c78)CC6)CC5)CC4)cc3C2=O)C(=O)N1 (some centres undefined) | 57 | 45.5 |  | 
O=C1CCC(N2C(=O)c3ccc(N4CCC(CN5CCC(C(=O)N[C@H]6CC[C@@H](Nc7ncnc8[nH]cc(C(=O)c9ccc(Oc%10ccccc%10)cc9Cl)c78)CC6)CC5)CC4)cc3C2=O)C(=O)N1 (some centres undefined) | 50 | 61 |  | 
O=C1CCC(N2C(=O)c3ccc(N4CCC(CCN5CCC(CN[C@H]6CC[C@@H](Nc7ncnc8[nH]cc(C(=O)c9ccc(Oc%10ccccc%10)cc9Cl)c78)CC6)CC5)CC4)cc3C2=O)C(=O)N1 (some centres undefined) | 69.5 | 76 | 100 | 
O=C1CCC(N2C(=O)c3ccc(N4CCC(N5CCC(CN[C@H]6CC[C@@H](Nc7ncnc8[nH]cc(C(=O)c9ccc(Oc%10ccccc%10)cc9Cl)c78)CC6)CC5)CC4)cc3C2=O)C(=O)N1 (some centres undefined) | 42.5 | 39 |  | 
O=C1CCC(N2Cc3ccc(N4CCC(CCN5CCC(CC(=O)N[C@H]6CC[C@@H](Nc7ncnc8[nH]cc(C(=O)c9ccc(Oc%10ccccc%10)cc9Cl)c78)CC6)CC5)CC4)cc3C2=O)C(=O)N1 (some centres undefined) | 87 | 83 | 7.4 | Emax [4]: 90.6%; IC50 (JeKo-1): 34.4 nM; IC50 (TMD8): 9.3 nM; half-life [9]: > 145 min; IC50 (OCI-Ly10): 5.9 nM
